Test results reported in patent publication US20070004689A1, “Antiangiogenic agents” (priority 2004, published 2007).
Like-named read-outs stand apart in the source and are kept apart here.

Assays:
[1] = tested on: PC3 a human prostate carcinoma; assay: Proliferation assay, PC3; assay type: cell-based; conditions: proliferation, read-out: PC3 (IC50 μM)
Description: (§1) Cell Culture: Human umbilical vein endothelial cells (HUVEC) were obtained from Clonetics (San Diego, Calif.), MCF7 cells were the kind gift of Dr. Dorraya El Ashry (University of Michigan), MDA-MB-231 a human breast carcinoma, PC3 a human prostate carcinoma, and U87-MG a human glioma, cell lines were obtained from ATCC. HUVEC cultures were maintained for up to 5 passages in EGM containing bovine brain extract (Clonetics) and 1× antibiotic-antimycotic (BioWhittaker, Walkersville, Md.). MDA-MB-231, PC3, U87-MG and MCF-7 cells were maintained in DMEM/F12 (1:1) containing 10% (v/v) fetal bovine serum (Hyclone Laboratories, Logan, Utah) and 1× antibiotic-antimycotic. MCF7 cells were used between passage 60 and passage 100.
(§2) Proliferation Assays: Proliferation was measured by cell counting using a Coulter Zl cell counter (Coulter Corporation, Hialeah, Fla.) or by evaluation of DNA synthesis. Each condition was done in triplicate and experiments were repeated at least twice. To determine estrogenicity of the analogs, MCF7 estrogen-dependent proliferation assays were performed. The cells were seeded in complete media at 10,000 cells/well in a 24 well plate after allowing the cells to adhere overnight and the seeding density was determined by cell counts. Cells were washed with PBS (37° C.) and starved by placing them in IMEM-phenol red free media containing 2% charcoal-dextran fetal bovine-stripped serum (Valley Biomedical, Winchester, Va.) and 1× antibiotic-antimycotic. After 3 days of starvation, cells were treated with or without increasing concentrations of compounds, replacing the media every 2-3 days and counted after 7 days of treatment. In order to ensure that only the added test compounds stimulated growth, experiments were performed only with cell cultures that duplicated less than once during the starvation period. Values are expressed as MCF7 stimulation index (SI) relative to 2ME2 (defined as 1.00). A value less than 1.00 indicates reduced estrogenicity. Estradiol is used as a positive control.
To determine anti-tumor and anti-angiogenic activities of the analogs, proliferation assays were performed by evaluating detection of DNA synthesis by use of the 5-bromo-2′-deoxyuridine (BrdU) cell proliferation colorimetric ELISA kit from Roche (Indianapolis, Ind.) according to the manufacturer's instructions. For BrdU assays, the cells were seeded at 1,000 cells/well (MDA-MB-231, anti-tumor activity) or 3,000 cells/well (HUVEC, anti-angiogenic activity) in a 96 well plate, allowed to attach overnight and then exposed to the compound for 48 h. IC50 value is the concentration at which cell proliferation is inhibited by 50%.
Antiproliferative activity of the NCEs were assessed in tumor cell lines (MDA-MB-231 a breast carcinoma, PC3 a prostate carcinoma and U87-MG a glioma) and endothelial cells (HUVEC).

[2] = tested on: MCF7 cells; assay: MCF7 estrogen-dependent proliferation assay (estrogenicity); assay type: cell-based, human; conditions: stimulation index, 2ME2 defined as 1.00; less than 1.00 = reduced estrogenicity; 7 days of treatment
Description: as §1
as §2, with “[…].” for “Values are expressed as MCF7 stimulation index (SI) relative to 2ME2 (defined as 1.00). A value less than 1.00 indicates reduced estrogenicity.”

[3] = tested on: CYP450 (CYP1A2, CYP2C9, CYP2C19, CYP2D6, CYP3A) in pooled human liver microsomes; assay: CYP450 inhibition using human microsomes; assay type: in vitro ADME; conditions: test compound 0.034-25 μM, CYP inhibited
Procedure: Determination of CYP450 inhibition and IC50 value using human microsomes: CYP450 inhibition provides a measure of potential issues with co-medication, since CYP450 enzymes metabolize many drugs. Microsomal incubation mixtures (500 μL) were prepared in HEPES buffer (50 mM HEPES, 15 mM MgCl2, 0.1 mM EDTA, pH 7.6) containing a NADPH regenerating system (1 mM NADPH, 10 mM glucose-6-phosphate 1 IU glucose-6-phosphate dehydrogenase), pooled human liver microsomes (0.5 mg protein), and 5 μL of 7 concentrations of compounds and positive control inhibitors (see Tables IV, V and VI).
After addition of the compounds or positive control inhibitors, the samples were pre-incubated at 37° C. for approximately 5 minutes. Subsequently, the P450 substrate cocktail were added to the reaction mixture and incubated for 20 minutes at 37° C. Reactions were terminated by the addition of 250 μL of methanol containing 5 μM dextrorphan as an internal standard (IS). The samples were vortexed briefly, placed on ice, and then centrifuged at approximately 12000×g for 5 minutes to remove debris. The supernatant from each sample was then transferred to a separate vial for LC-MS/MS analysis. Analysis to determine the amount of substrate specific metabolites (relative to the control samples) was carried out using reverse phase HPLC with tandem mass spectrometric detection (LC-MS/MS). Analysis of the data was carried out using Micromass MetaboLynx and QuanLynx software Versions 3.5 to determine the amount of the specific substrate metabolites produced in each sample (relative to the control samples).

IC50 [1]	SMILES	IC50 ([1]; Homo sapiens)	MCF7 SI Relative to 2ME2 [2]	CYP450 inhib. [3]
–	COc1cc2c(cc1C(N)=O)CC[C@@H]1[C@@H]2CC[C@]2(C)C(=O)CC[C@@H]12 [Compound 54, 2-methoxy-17-oxoestra-1,3,5(10)-triene-3-carboxamide]	4.64 ± 0.9 µM	0.26	None
5.7 ± 0.58 µM	COc1cc2c(cc1C(N)=O)CC[C@@H]1[C@@H]2CC[C@]2(C)CCC[C@@H]12 [Compound 57, (2-Methoxyestra-1,3,5(10)-trien-3-yl)-3-carboxamide]	–	0.31	None
–	C=C1CC[C@H]2[C@@H]3CCc4cc(C(N)=O)c(OC)cc4[C@H]3CC[C@]12C [Compound 60, 2-Methoxy-17-methyleneestra-1,3,5(10)-triene-3-carboxamide]	0.25 ± 0.01 µM	0.26	None
0.21 ± 0.1 µM	COc1cc2c(cc1C(N)=O)CC[C@@H]1[C@@H]2CC[C@]2(C)C=CC[C@@H]12 [Compound 63, 3-carboxamide-2-methoxy-1,3,5(10)16-estratetraene]	–	0.28	None
